Target: T1, HCV-NS5b (Hepatitis C virus genotype 1b, UniProt Q9WMX2)
T1 construct: The cloned fragment was missing the C terminus 21 amino acid residues; (His)6 (C); made in house; host or cells: XL-1 cells (E. coli)
Assay: HCV-NS5b Enzyme Assay
Format: biochemical
Conditions: 1 μM test compound; incorporation of [3H]-UTP, 37° C., 2 hours
Method in brief: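 The NS5B construct lacks its C-terminal 21 residues, carries a C-terminal His6 tag and was expressed in E. coli. [^3H]-UTP incorporation on a biotinylated HCV heteropolymeric template (10 ng/μL) with 10 μM each NTP, pH 7.5, 5 mM MgCl2 and 5% DMSO ran 2 h at 37° C and was read by SPA scintillation. IC50s came from 10-point 2-fold series starting at 50 or 2 μM.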

Structure (SMILES)	inhibition at 1 µM	% inhibition @ 1 μM
COc1ncccc1-c1ccc(-c2c(C3CCCCC3)c3ccc(C(=O)O)cc3n2CC(=O)N2CCOCC2)cc1 [Compound 304, 3-Cyclohexyl-2-[4-(2-methoxy-pyridin-3-yl)-phenyl]-1-(2-morpholin-4-yl-2-oxo-ethyl)-1H-indole-6-carboxylic acid]	98.5%	
O=C(O)c1ccc2c(C3CCCCC3)c(-c3ccc4cc(-c5ccccc5F)ccc4c3)n(CC(=O)N3CCOCC3)c2c1 [Compound 322, 3-Cyclohexyl-2-[6-(2-fluoro-phenyl)-naphthalen-2-yl]-1-(2-morpholin-4-yl-2-oxo-ethyl)-1H-indole-6-carboxylic acid]	95.1%	
Nc1cccc(-c2ccc(-c3c(C4CCCCC4)c4ccc(C(=O)O)cc4n3CC(=O)N3CCOCC3)cc2)c1 [Compound 315, 2-(3′-Amino-biphenyl-4-yl)-3-cyclohexyl-1-(2-morpholin-4-yl-2-oxo-ethyl)-1H-indole-6-carboxylic acid]	95.8%	
O=C(O)c1ccc2c(C3CCCCC3)c(-c3ccc(-c4ccc(Cl)s4)cc3)n(CC(=O)N3CCOCC3)c2c1 [Compound 318, 2-[4-(5-Chloro-thiophen-2-yl)-phenyl]-3-cyclohexyl-1-(2-morpholin-4-yl-2-oxo-ethyl)-1H-indole-6-carboxylic acid]	98.1%	
COc1ccc(-c2ccc(Cl)cc2)c(-c2ccc3cc(-c4c(C5CCCCC5)c5ccc(C(=O)O)cc5n4CC(=O)O)ccc3n2)c1 [Compound 202, 1-carboxymethyl-2-[2-(4′-chloro-4-methoxy-biphenyl-2-yl)-quinolin-6-yl]-3-cyclohexyl-1H-indole-6-carboxylic acid]	98.3%	
Cc1nc(C)c(-c2ccc3cc(-c4[nH]c5c(C)c(C(=O)O)ccc5c4C4CCCCC4)ccc3n2)s1 [Compound 334, 3-Cyclohexyl-2-[2-(2,4-dimethyl-thiazol-5-yl)-quinolin-6-yl]-7-methyl-1H-indole-6-carboxylic acid]	86.9%	
Cc1ccc(-c2ccc(-c3c(C4CCCCC4)c4ccc(C(=O)O)cc4n3CC(=O)N3CCOCC3)cc2)cc1 [Compound 300, 3-Cyclohexyl-2-(4′-methyl-biphenyl-4-yl)-1-(2-morpholin-4-yl-2-oxo-ethyl)-1H-indole-6-carboxylic acid]	98.2%	
Cc1nc(C)c(-c2ccc3cc(-c4c(C5CCCCC5)c5ccc(C(=O)O)cc5n4CC(=O)N(C)C)ccc3n2)s1 [Compound 212, 1-[N,N-dimethylaminocarbonyl-methyl]-2-[2-(2,4-dimethylthiazol-5-yl)-quinolin-6-yl]-3-cyclohexyl-1H-indole-6-carboxylic acid]	96.8%	
Cc1nc(C)c(-c2ccc3cc(-c4c(C5CCCCC5)c5ccc(C(=O)O)cc5n4CC(=O)N4CCC(C)CC4)ccc3n2)s1 [Compound 280, 3-Cyclohexyl-2-[2-(2,4-dimethyl-thiazol-5-yl)-quinolin-6-yl]-1-[2-(4-methyl-piperidin-1-yl)-2-oxo-ethyl]-1H-indole-6-carboxylic acid]	97.7%	
Cc1nc(C)c(-c2ccc3cc(-c4c(C5CCCCC5)c5ccc(C(=O)O)c(C)c5n4CC(=O)N4CCOCC4)ccc3n2)s1 [Compound 238, 3-Cyclohexyl-2-[2-(2,4-dimethyl-thiazol-5-yl)-quinolin-6-yl]-7-methyl-1-(2-oxo-2-morpholino-4-yl-ethyl)-1H-indole-6-carboxylic acid]	85.6%	
Cc1noc(C)c1-c1ccc(-c2c(C3CCCCC3)c3ccc(C(=O)O)cc3n2CC(=O)N2CCOCC2)cc1 [Compound 317, 3-Cyclohexyl-2-[4-(3,5-dimethyl-isoxazol-4-yl)-phenyl]-1-(2-morpholin-4-yl-2-oxo-ethyl)-1H-indole-6-carboxylic acid]	96.7%	
Cc1nc(C)c(-c2ccc3cc(-c4c(C5CCCCC5)c5ccc(C(=O)O)cc5n4CC(=O)N4C(C)COCC4C)ccc3n2)s1 (centres unmarked) [Compound 279, 3-Cyclohexyl-1-[2-(3,5-dimethyl-morpholin-4-yl)-2-oxo-ethyl]-2-[2-(2,4-dimethyl-thiazol-5-yl)-quinolin-6-yl]-1H-indole-6-carboxylic acid]	100%	
Cc1nc(C)c(-c2ccc3cc(-c4c(C5CCCCC5)c5ccc(C(=O)O)cc5n4CC(=O)Nc4nn[nH]n4)ccc3n2)s1 [Compound 239, 3-Cyclohexyl-2-[2-(2,4-dimethyl-thiazol-5-yl)-quinolin-6-yl]-1-[(2H-tetrazol-5-ylcarbamoyl)-methyl]-1H-indole-6-carboxylic acid]	96.9%	
N#Cc1cccc(-c2ccc(-c3c(C4CCCCC4)c4ccc(C(=O)O)cc4n3CC(=O)N3CCOCC3)cc2)c1 [Compound 306, 2-(3′-Cyano-biphenyl-4-yl)-3-cyclohexyl-1-(2-morpholin-4-yl-2-oxo-ethyl)-1H-indole-6-carboxylic acid]	97.8%	

Continued, values first:

inhibition at 1 µM	% inhibition @ 1 μM	Structure (SMILES)
98.1%		O=C(O)c1ccc2c(C3CCCCC3)c(-c3ccc4nc(-c5cccc([N+](=O)[O-])c5)ccc4c3)n(CC(=O)N3CCOCC3)c2c1 [Compound 256, 3-Cyclohexyl-2-[2-(3-nitro-phenyl)-quinolin-6-yl]-1-(2-morpholin-4-yl-2-oxo-ethyl)-1H-indole-6-carboxylic acid]
101%		COc1ccc(-c2ccc3cc(-c4c(C5CCCCC5)c5ccc(C(=O)O)cc5n4CC(=O)N4CCOCC4)ccc3n2)c(OC)c1OC [Compound 272, 3-Cyclohexyl-1-(2-morpholin-4-yl-2-oxo-ethyl)-2-[2-(2,3,4-trimethoxy-phenyl)-quinolin-6-yl]-1H-indole-6-carboxylic acid]
98.2%		Cc1cccc(-c2ccc3cc(-c4c(C5CCCCC5)c5ccc(C(=O)O)cc5n4CC(=O)N4CCOCC4)ccc3c2)c1 [Compound 321, 3-Cyclohexyl-1-(2-morpholin-4-yl-2-oxo-ethyl)-2-(6-m-tolyl-naphthalen-2-yl)-1H-indole-6-carboxylic acid]
	94.5%	O=C(O)c1ccc2c(C3CCCCC3)c(-c3ccc4nc(-c5cccnc5)ccc4c3)n(CC(=O)N3CCOCC3)c2c1 [Compound 226, 1-[N-morpholinocarbonylmethyl]-2-[2-pyrid-3-ylquinolin-6-yl]-3-cyclohexyl-1H-indole-6-carboxylic acid]
	95.1%	Cc1ccc(-c2ccc3cc(-c4c(C5CCCCC5)c5ccc(C(=O)O)cc5n4CC(=O)N4CCOCC4)ccc3n2)o1 [Compound 223]
97.3%		Cc1nc(C)c(-c2ccc3cc(-c4c(C5CCCCC5)c5ccc(C(=O)O)cc5n4CC(=O)N4CCOCC4)ccc3n2)s1 [Compound 210, 1-[N-morpholinocarbonylmethyl]-2-[2-(2,4-dimethylthiazol-5-yl)-quinolin-6-yl]-3-cyclohexyl-1H-indole-6-carboxylic acid]
95%		COc1ccc(F)c(-c2ccc3cc(-c4c(C5CCCCC5)c5ccc(C(=O)O)cc5n4CC(=O)N4CCOCC4)ccc3n2)c1 [Compound 270, 3-Cyclohexyl-2-[2-(2-fluoro-5-methoxy-phenyl)-quinolin-6-yl]-1-(2-morpholin-4-yl-2-oxo-ethyl)-1H-indole-6-carboxylic acid]
	92.3%	O=C(O)c1ccc2c(C3CCCCC3)c(-c3ccc4nc(-c5ccco5)ccc4c3)n(CC(=O)N3CCOCC3)c2c1 [Compound 222, 1-[N-morpholinocarbonylmethyl]-2-(2-furan-2-yl-quinolin-6-yl)-3-cyclohexyl-1H-indole-6-carboxylic acid]
93%		Nc1cccc(-c2ccc3cc(-c4c(C5CCCCC5)c5ccc(C(=O)O)cc5n4CC(=O)N4CCOCC4)ccc3n2)c1 [Compound 264, 2-[2-(3-Amino-phenyl)-quinolin-6-yl]-3-cyclohexyl-1-(2-morpholin-4-yl-2-oxo-ethyl)-1H-indole-6-carboxylic acid]
97%		O=C(O)c1ccc2c(C3CCCCC3)c(-c3ccc4nc(-c5cncs5)ccc4c3)n(CC(=O)N3CCOCC3)c2c1 [Compound 331, 3-Cyclohexyl-1-(2-morpholin-4-yl-2-oxo-ethyl)-2-(2-thiazol-5-yl-quinolin-6-yl)-1H-indole-6-carboxylic acid]
99.9%		Cc1ccc(-c2ccc3cc(-c4c(C5CCCCC5)c5ccc(C(=O)O)cc5n4CC(=O)N4CCOCC4)ccc3n2)cc1C [Compound 250, 3-Cyclohexyl-2-[2-(3,4-dimethyl-phenyl)-quinolin-6-yl]-1-(2-morpholin-4-yl-2-oxo-ethyl)-1H-indole-6-carboxylic acid]
	96.2%	O=C(O)c1ccc2c(C3CCCCC3)c(-c3ccc4nc(-c5ccsc5)ccc4c3)n(CC(=O)N3CCOCC3)c2c1 [Compound 228, 1-[N-morpholinocarbonylmethyl]-2-[2-thien-3-ylquinolin-6-yl]-3-cyclohexyl-1H-indole-6-carboxylic acid]
97.1%		O=C(O)c1ccc2c(C3CCCCC3)c(-c3ccc4nc(-c5ccc(F)c(F)c5)ccc4c3)n(CC(=O)N3CCOCC3)c2c1 [Compound 266, 3-Cyclohexyl-2-[2-(3,4-difluoro-phenyl)-quinolin-6-yl]-1-(2-morpholin-4-yl-2-oxo-ethyl)-1H-indole-6-carboxylic acid]
	96.4%	O=C(O)c1ccc2c(C3CCCCC3)c(-c3ccc4nc(-c5ccccc5)ccc4c3)n(CC(=O)N3CCOCC3)c2c1 [Compound 220, 1-[N-morpholinocarbonylmethyl]-2-[2-phenylquinolin-6-yl]-3-cyclohexyl-1H-indole-6-carboxylic acid]
101%		O=C(O)c1ccc2c(C3CCCCC3)c(-c3ccc(-c4ccc5cc(Br)ccc5n4)cc3)n(CC(=O)N3CCOCC3)c2c1 [Compound 298, 2-[4-(6-Bromo-quinolin-2-yl)-phenyl]-3-cyclohexyl-1-(2-morpholin-4-yl-2-oxo-ethyl)-1H-indole-6-carboxylic acid]

From patent publication US20060211698A1, “Bicyclic heteroaryl derivatives for treating viruses” (Genelabs, Inc., priority 2005, published 2006)
